Source: ChEMBL document CHEMBL1127911, “Synthesis of sulphur heterocycles as hepatoprotectants : part I” (1994)

Key:
Format in all cases: functional
[1] = tested on: Rattus norvegicus; experiment: % protection of glutamate pyruvate transaminase level, against thioacetamide-induced hepatic damage in rats, at 6 mg/Kg peroral dose
[2] = tested on: Rattus norvegicus; experiment: % protection measured by glutamate oxaloacetate transaminase level, against thioacetamide-induced hepatic damage in rats, at 6 mg/Kg peroral dose
[3] = tested on: Rattus norvegicus; experiment: Tested for hepatoprotective activity against thioacetamide-induced hepatic damage in rat at 6 mg/kg, expressed as % protection afforded in GIDH levels
[4] = tested on: Rattus norvegicus; experiment: Tested for hepatoprotective activity against thioacetamide-induced hepatic damage in rat at 6 mg/kg, expressed as % protection afforded in ACP levels
[5] = tested on: Rattus norvegicus; experiment: Tested for hepatoprotective activity against thioacetamide-induced hepatic damage in rat at 6 mg/kg, expressed as % protection afforded in ALP levels

N#CC(C(=O)c1ccccc1)=C1SCCCS1
Protection [1]: 0%
Protection [2]: 0%
Protection [3]: 0%
Protection [4]: 0%
Protection [5]: 0%

CCN(CC)C(=S)SC(C(=O)c1ccc(Cl)cc1)=C1SCCS1
Protection [1]: 0%
Protection [2]: 46%
Protection [3]: 5%
Protection [4]: 27%
Protection [5]: 0%

N#CC(C(=O)c1ccccc1)=C1SCCS1
Protection [1]: 0%
Protection [2]: 0%
Protection [3]: 0%
Protection [4]: 0%
Protection [5]: 31%

COC(=O)C(C(C)=O)=C1SCCS1
Protection [1]: 0%
Protection [2]: 7%
Protection [3]: 0%
Protection [4]: 9%
Protection [5]: 0%

N#CC(C(=O)c1ccc(Cl)cc1)=C1SCCCS1
Protection [1]: 0%
Protection [2]: 63%
Protection [3]: 0%
Protection [4]: 0%
Protection [5]: 0%

CC(C)OC(=O)C(C(=O)OC(C)C)=C1SCCS1 [ISOPROTHIOLANE]
Protection [1]: 77%
Protection [2]: 92%
Protection [3]: 0%
Protection [4]: 0%
Protection [5]: 0%

CCN(CC)C(=S)SC(C(=O)c1ccc(Cl)cc1)=C1SCCCS1
Protection [1]: 0%
Protection [2]: 85%
Protection [3]: 26%
Protection [4]: 6%
Protection [5]: 37%

CCOC(=O)C(C#N)=C1SCCCS1
Protection [1]: 59%
Protection [2]: 84%
Protection [3]: 0%
Protection [4]: 0%
Protection [5]: 76%

CCN(CC)C(=S)SC(C(=O)c1ccc(C)cc1)=C1SCCS1
Protection [1]: 0%
Protection [2]: 56%
Protection [3]: 93%
Protection [4]: 70%
Protection [5]: 0%

O=C(C(C(=O)c1ccccc1)=C1SCCS1)c1ccccc1
Protection [1]: 0%
Protection [2]: 0%
Protection [3]: 0%
Protection [4]: 8%
Protection [5]: 34%

CC(=O)C(C(C)=O)=C1SCCCS1
Protection [1]: 0%
Protection [2]: 27%
Protection [3]: 0%
Protection [4]: 0%
Protection [5]: 67%

N#Cc1c(-c2ccccc2)cc(S)sc1=N
Protection [1]: 35%
Protection [2]: 41%
Protection [3]: 47%
Protection [4]: 47%
Protection [5]: 30%

SILYMARIN
Protection [1]: 47.2%
Protection [2]: 50.1%
Protection [3]: 39.8%
Protection [4]: 43.6%
Protection [5]: 47%

CCOC(=O)C(C#N)=C1SCCS1
Protection [1]: 73%
Protection [2]: 74%
Protection [3]: 46%
Protection [4]: 35%
Protection [5]: 11%

O=C(c1ccc(Cl)cc1)c1sc(=S)sc1SCc1ccccc1
Protection [1]: 39%
Protection [2]: 80%
Protection [3]: 15%
Protection [4]: 4%
Protection [5]: 3%

COC(=O)C(C(C)=O)=C1SCCCS1
Protection [1]: 0%
Protection [2]: 66%
Protection [3]: 68%
Protection [4]: 0%
Protection [5]: 14%

N#Cc1c(SCCS)n[nH]c1N
Protection [1]: 0%
Protection [2]: 0%
Protection [3]: 0%
Protection [4]: 9%
Protection [5]: 0%

CCN(CC)C(=S)SC(C(=O)c1ccc(Br)cc1)=C1SCCCS1
Protection [1]: 0%
Protection [2]: 38%
Protection [3]: 0%
Protection [4]: 20%
Protection [5]: 0%

N#CC(C(=O)c1ccc(Cl)cc1)=C1SCCS1
Protection [1]: 0%
Protection [2]: 0%
Protection [3]: 0%
Protection [4]: 0%
Protection [5]: 0%

CCOC(=O)C(C(=O)c1ccccc1)=C1SCCS1
Protection [1]: 0%
Protection [2]: 0%
Protection [3]: 0%
Protection [4]: 29%
Protection [5]: 0%

CC(=O)C(C(C)=O)=C1SCCS1
Protection [1]: 40%
Protection [2]: 67%
Protection [3]: 8%
Protection [4]: 0%
Protection [5]: 0%

CCOC(=O)C(C(=O)c1ccccc1)=C1SCCCS1
Protection [1]: 45%
Protection [2]: 35%
Protection [3]: 23%
Protection [4]: 7%
Protection [5]: 0%

CCOC(=O)C(C(=O)OCC)=C1SCCS1
Protection [1]: 0%
Protection [2]: 0%
Protection [3]: 2%
Protection [4]: 39%
Protection [5]: 0%
